One test has as its system Mouse melanoma B16 cells. Nature of the test: Evaluation of melanogenesis inhibitory effect using mouse melanoma cells. The class given is cell-based. The note with it: melanin production per cell, FIG. 4. The method, then: Mouse melanoma B16 cells (3.6×10^5) were added to a 75 cm^2 culture flask containing 15 ml of D-MEM culture medium supplemented with 10% FCS, and incubated overnight at 37° C. under 5% carbon dioxide gas to adhere the cells. The culture medium was changed to 15 ml of 10% FCS-supplemented D-MEM culture medium containing one of 0.1% DMSO solutions of arbutin or 6-O-(10-undecylenoyl) arbutin obtained in Example 1-1 at various concentrations. The incubation was continued for two more days under the same conditions. The culture medium was again changed to 15 ml of the 0.1% DMSO solution-containing culture medium, and incubation was continued for two more days under the same conditions. After incubation, the cells were recovered, and the wet weight of the cells was measured. After the wet weight measurement, pellets of the cells were suspended in MilliQ water to a total volume of 700 μl. […] The absorbance (405 nm) was then measured. […] The melanin production per cell was indicated as absorbance at 405 nm/cell wet weight (μg). The melanogenesis inhibitory effects of arbutin undecylenate or arbutin at each concentration was determined, with the melanin production per cell without addition of arbutin or arbutin undecylenate being taken as 100%.

Test [1] deals with tyrosinase (derived from mushroom, SIGMA). As to the kind of experiment: Tyrosinase activation promoting effect, phenol as substrate in the presence of proline. The class given is biochemical. The settings on record: FIG. 10. Here is the method:
Ascorbic acid and ascorbic acid derivatives were used as test substances for measuring tyrosinase activation promoting effects, using phenol as a substrate in the presence of proline.
Phenol is hydroxylated by tyrosinase, and at that time requires a hydrogen donor. The produced pyrocatechol is oxidized by tyrosinase to form an orthoquinone. The orthoquinone formed is quantitated in the presence of proline, to determine the tyrosinase activity.
Specifically, the measurement was carried out as follows. Forty microliters of 0.749 M L-proline dissolved in 0.1 M phosphate buffer at pH 7.5, 40 μl of 0.037 M phenol, and 1.41 ml of one of test substance solutions at various concentrations were stirred in a cuvette for absorbance measurement. A solution (10 μl) of 350 μg/ml of tyrosinase (derived from mushroom, SIGMA) was added, and the absorbance change was measured with stirring for 15 minutes at 525 nm, to determine the tyrosinase activity. […]

For test [2] the test system is unchanged. As to the kind of experiment: Tyrosinase inhibitory activity using proline, pyrocatechol as substrate. The class given is biochemical. The settings on record: pyrocatechol (catechol) as substrate, absorbance 525 nm.
For test [3] the test system is unchanged. Nature of the test: Tyrosinase inhibitory activity using proline, phenol as substrate. The class given is biochemical. The settings on record: for tyrosinase inhibitory activity: phenol as substrate, absorbance 525 nm. Here is the method:
The tyrosinase inhibitory activity of an undecylenic acid sugar ester was determined using phenol as a substrate, by a modification of the method using pyrocatechol.

Regarding `C=CCCCCCCCCC(=O)OC[C@H]1O[C@@H](Oc2ccc(O)cc2)[C@H](O)[C@@H](O)[C@@H]1O` [arbutin undecylenate, 6-O-(10-undecylenoyl)arbutin], the “melanogenesis inhibitory effect relative to arbutin” value in the test on Mouse melanoma B16 cells was “about 100 times”.
As to `CCCCCCCCCCCCCCCC(=O)OCC(O)C1OC(=O)C(O)=C1O` (stereo not shown) [Ascorbic acid palmitic ester, ascorbic acid-6-palmitate], the “concentrations exhibiting tyrosinase activity promoting effects” value in test [1] is on record as ≤ 10^−4 M.
As to Trehalose diundecylenic acid ester, the tyrosinase inhibitory activity entry in test [2] is “not inhibit tyrosinase activity”.
`OC[C@H]1O[C@@H](Oc2ccc(O)cc2)[C@H](O)[C@@H](O)[C@@H]1O` [Arbutin]: the tyrosinase inhibitory activity result in test [2] and in test [3] was “inhibit tyrosinase activity” throughout. Besides, the “tyrosinase inhibitory activity, phenol substrate compared with catechol substrate” value in test [3] (phenol vs catechol substrate, FIG. 6) was “higher inhibitory activity against a phenol substrate than against a catechol substrate”.
In the case of `C=CCCCCCCCCC(=O)O` [Undecylenic acid], in test [2], the tyrosinase inhibitory activity result is “inhibit tyrosinase activity”.
On to Trehalose oleate, for which, in test [3], the tyrosinase inhibitory activity entry is recorded as “not inhibit tyrosinase activity”.
In the case of Sucrose undecylenic acid ester, the tyrosinase inhibitory activity entry in test [2] and in test [3] was “inhibit tyrosinase activity” each time.
For the compound trehalose undecylenic acid ester, the tyrosinase inhibitory activity entry in test [2] is on record as “inhibition of tyrosinase”; in test [3], “tyrosinase was inhibited”.
As to `O=C1O[C@H]([C@@H](O)CO)C(O)=C1O` [ascorbic acid, L-ascorbic acid], the “concentrations exhibiting tyrosinase activity promoting effects” value in test [1] is ≤ 10^−4 M.

For the origin of these results see patent US7754864B2, “Tyrosinase activity controlling agent, process for producing the same and external preparation containing the same” (National Institute of Advanced Industrial Science and …, priority 2002, dated 2010).
